This note sets out measurements from publication PMC3726784, “Synthesis, Structure and Antibacterial Activity of Potent DNA Gyrase Inhibitors: N′-Benzoyl-3-(4-Bromophenyl)-1H-Pyrazole-5-Carbohydrazide Derivatives” (PLoS ONE, 2013).

≈ marks a conversion by molar mass, not a printed value.

In series [1] the target is T1, S. aureus DNA gyrase (Staphylococcus aureus, UniProt P0A0K8).
T1 construct: purified by the F. Blanche [25] from a crude extract of S. aureus; endogenous in cells
Briefly: biochemical. The following applies: enzyme purified from S. aureus, supercoiling. From the text: (§1) To elucidate the mechanism by which the pyrazole derivatives induce antibacterial activity, the inhibitory activities of selected compounds were examined against DNA gyrase isolated from B. subtilis and S. aureus.
The S. aureus DNA gyrase were purified by the F. Blanche from a crude extract of S. aureus and cultivated with medium B, which was composed of 10 g of polypeptone, 2 g of yeast extract, 8 g of Na2HPO4, 2 g of KH2PO4, 1.2 g of (NH4)2SO4, 0.2 g of MgSO4, 4 g of glucose perliter of distilled water. Supercoiling and decatenation were performed according to F. B lanche.

Series [2] deals with B. subtilis DNA gyrase (Bacillus subtilis, UniProt P05652). Briefly: biochemical. How it is done:
as §1
The B. subtilis DNA gyrase were purified by the methods of E. Orr.: Cells were suspended in an equal volume of 25 mM HEPES-KOH (pH 8.0)-100 mM KCl and stored frozen at −70°C. The frozen cell suspension was thawed and diluted with an equal volume of 25 mM HEPES-KOH (pH 8.0)-0.4 M sucrose-20 mM magnesium acetate-1 mM dithiothreitol-5 mM PMSF. All operations were performed at 0–4°C. Lysozyme was added to a final concentration, and the mixture was incubated for 2.5 h. One-third volume of 2 M KCl-1.5% Brij was added, and the incubation was continued for 15 min. The lysate was then centrifuged for 90 min intirotor. The supernatant was adjusted to a KCl concentration of 0.2 M by dilution with 25 mM HEPES-KOH (pH 8.0)-1 mM dithiothreitol-1mMEDTA-0.5 mM pmsf-10% ethylene glycol and applied to a column. The column was washed with starting buffer and eluted successively with buffer containing 20 mM ATP-25 mM magnesium acetate-0.2 M KCI, buffer (2 M KCI), and 5 M urea in buffer (0.2 M KCl).Protein-containing fractions were dialyzed against buffer (0.05 MKCI). Supercoiling and decatenation were carried out by the F. Blanche method.

Series [3] relates to Escherichia coli ATCC 35218. As to the kind of experiment: In vitro antibacterial assay (MIC, MTT colorimetric method). As to conditions: Escherichia coli, ATCC35218; E. coli ATCC 35218, MH medium, 37°C, 24 h; read-out: Minimum inhibitory concentrations, E. coli. The format is cell-based. The procedure: (§2) The activities of synthesized compounds were tested against Bacillus subtilis ATCC 6633, Escherichia coli ATCC 35218, Pseudomonas aeruginosa ATCC 27853 and Staphylococcus aureus ATCC 6538 which may be causal agents of some serious infections in humans using MH medium (Mueller-Hinton medium: casein hydrolysate 17.5 g, soluble starch 1.5 g, beef extract 1000 mL). Also included are the activities of reference compounds kanamycin.
(§3) The antibacterial activity of the synthesized compounds was tested against B. subtilis, E. coli, P. aeruginosa and S. aureus using MH medium (Mueller-Hinton medium: casein hydrolysate 17.5 g, soluble starch 1.5 g, beef extract 1000 mL). The MICs (minimum inhibitory concentrations) of the test compounds were determined by a colorimetric method using the dye MTT (3-(4,5-dimethylth-iazol-2-yl)-2,5-diphenyl tetrazoliumbromide). A stock solution of the synthesized compound (100 µg/mL) in DMSO was prepared and graded quantities of the test compounds were incorporated in specified quantity of sterilized liquid MH medium. A specified quantity of the medium containing the compound was poured into microtitration plates. Suspension of the microorganism was prepared to contain approximately 10^5 cfu/mL and applied to microtitration plates with serially diluted compounds in DMSO to be tested and incubated at 37°C for 24 h. After the MICs were visually determined on each of the microtitration plates, 50 µL of PBS (phosphate buffered saline 0.01 mol/L, pH 7.4, Na2HPO4·12H2O 2.9 g, KH2PO4 0.2 g, NaCl 8.0 g, KCl 0.2 g, distilled water 1000 mL) containing 2 mg of MTT/mL was added to each well. Incubation was continued at room temperature for 4–5 h. The content of each well was removed, and 100 µL of isopropanol containing 5% 1 mol/L HCl was added to extract the dye. After 12 h of incubation at room temperature, the optical density (OD) was measured with a microplate reader at 550 nm.
(In general: Formazan colour is commonly taken as a measure of viable cells.)

Series [4] concerns Staphylococcus aureus ATCC 6538. The description is as above. Type of series: cell-based. The following applies: Staphylococcus aureus, ATCC6538; S. aureus ATCC 6538, MH medium, 37°C, 24 h; read-out: Minimum inhibitory concentrations, S. aureus. The procedure: as §2, §3
Series [5] deals with Pseudomonas aeruginosa ATCC 27853. The description is as above. The format is cell-based. The following applies: Pseudomonas aeruginosa, ATCC27853; P. aeruginosa ATCC 27853, MH medium, 37°C, 24 h; read-out: Minimum inhibitory concentrations, P.aeruginosa. How it is done:
as §2, §3

The test system of series [6] is Bacillus subtilis ATCC 6633. The description is as above. The format is cell-based. The following applies: Bacillus subtilis, ATCC6633, 24 h, B. subtilis ATCC 6633, MH medium, 37°C, read-out: Minimum inhibitory concentrations, B. subtilis. How it is done: as §2, §3

Sequence of B. subtilis DNA gyrase (P05652 whole entry): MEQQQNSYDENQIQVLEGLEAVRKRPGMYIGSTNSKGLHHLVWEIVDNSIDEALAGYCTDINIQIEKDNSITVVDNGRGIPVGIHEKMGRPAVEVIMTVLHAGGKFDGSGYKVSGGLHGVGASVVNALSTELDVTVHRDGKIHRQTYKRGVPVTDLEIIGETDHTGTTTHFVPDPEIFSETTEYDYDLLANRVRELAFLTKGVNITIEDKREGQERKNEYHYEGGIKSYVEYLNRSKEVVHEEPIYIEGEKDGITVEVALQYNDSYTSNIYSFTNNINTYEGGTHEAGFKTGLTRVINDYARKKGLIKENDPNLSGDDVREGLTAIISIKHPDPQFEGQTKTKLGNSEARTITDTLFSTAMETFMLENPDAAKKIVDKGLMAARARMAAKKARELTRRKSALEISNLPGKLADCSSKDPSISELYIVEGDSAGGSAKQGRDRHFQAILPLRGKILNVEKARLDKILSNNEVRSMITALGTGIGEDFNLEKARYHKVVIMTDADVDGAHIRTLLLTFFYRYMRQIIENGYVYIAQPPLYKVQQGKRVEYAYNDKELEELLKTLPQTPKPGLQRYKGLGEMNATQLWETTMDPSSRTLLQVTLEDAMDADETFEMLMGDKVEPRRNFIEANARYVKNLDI
Sequence of B. subtilis DNA gyrase (P05653 whole entry, further chain): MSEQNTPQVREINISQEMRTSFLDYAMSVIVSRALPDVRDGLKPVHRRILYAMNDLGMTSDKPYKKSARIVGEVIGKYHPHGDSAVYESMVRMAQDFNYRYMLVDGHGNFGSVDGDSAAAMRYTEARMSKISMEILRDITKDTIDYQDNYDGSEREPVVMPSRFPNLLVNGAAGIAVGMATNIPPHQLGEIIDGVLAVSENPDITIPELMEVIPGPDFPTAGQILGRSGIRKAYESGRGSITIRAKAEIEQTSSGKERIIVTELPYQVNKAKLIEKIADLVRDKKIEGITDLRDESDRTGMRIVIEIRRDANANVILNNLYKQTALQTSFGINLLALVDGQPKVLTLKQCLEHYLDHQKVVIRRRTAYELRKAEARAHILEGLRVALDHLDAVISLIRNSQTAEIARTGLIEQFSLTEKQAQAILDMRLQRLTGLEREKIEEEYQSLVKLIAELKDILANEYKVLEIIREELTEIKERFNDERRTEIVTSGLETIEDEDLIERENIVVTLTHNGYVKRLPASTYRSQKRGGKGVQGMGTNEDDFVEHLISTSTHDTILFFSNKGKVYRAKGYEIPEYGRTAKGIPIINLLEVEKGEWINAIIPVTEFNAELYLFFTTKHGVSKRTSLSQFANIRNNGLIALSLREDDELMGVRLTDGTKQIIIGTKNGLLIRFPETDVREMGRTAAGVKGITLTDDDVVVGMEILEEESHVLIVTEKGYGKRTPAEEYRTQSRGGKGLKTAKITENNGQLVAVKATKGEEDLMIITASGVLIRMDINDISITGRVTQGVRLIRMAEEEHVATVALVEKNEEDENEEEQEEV
T1 sequence (P0A0K8 whole entry): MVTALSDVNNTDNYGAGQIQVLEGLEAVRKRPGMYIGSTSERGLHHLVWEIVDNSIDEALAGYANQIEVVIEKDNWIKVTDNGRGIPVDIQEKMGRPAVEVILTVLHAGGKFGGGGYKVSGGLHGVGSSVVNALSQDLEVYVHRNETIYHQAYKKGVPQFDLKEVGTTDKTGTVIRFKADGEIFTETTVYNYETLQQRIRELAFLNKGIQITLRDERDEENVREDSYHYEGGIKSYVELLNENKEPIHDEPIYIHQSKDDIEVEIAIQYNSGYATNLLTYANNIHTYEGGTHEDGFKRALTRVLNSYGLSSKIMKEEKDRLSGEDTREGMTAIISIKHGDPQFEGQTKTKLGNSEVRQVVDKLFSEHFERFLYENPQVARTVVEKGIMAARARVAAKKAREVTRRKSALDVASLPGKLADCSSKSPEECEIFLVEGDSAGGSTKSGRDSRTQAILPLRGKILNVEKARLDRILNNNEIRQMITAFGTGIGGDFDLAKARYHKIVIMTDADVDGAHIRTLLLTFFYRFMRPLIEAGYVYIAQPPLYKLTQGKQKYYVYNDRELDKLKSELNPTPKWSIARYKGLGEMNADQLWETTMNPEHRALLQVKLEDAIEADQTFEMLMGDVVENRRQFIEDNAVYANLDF
T1 sequence (P20831 whole entry partner): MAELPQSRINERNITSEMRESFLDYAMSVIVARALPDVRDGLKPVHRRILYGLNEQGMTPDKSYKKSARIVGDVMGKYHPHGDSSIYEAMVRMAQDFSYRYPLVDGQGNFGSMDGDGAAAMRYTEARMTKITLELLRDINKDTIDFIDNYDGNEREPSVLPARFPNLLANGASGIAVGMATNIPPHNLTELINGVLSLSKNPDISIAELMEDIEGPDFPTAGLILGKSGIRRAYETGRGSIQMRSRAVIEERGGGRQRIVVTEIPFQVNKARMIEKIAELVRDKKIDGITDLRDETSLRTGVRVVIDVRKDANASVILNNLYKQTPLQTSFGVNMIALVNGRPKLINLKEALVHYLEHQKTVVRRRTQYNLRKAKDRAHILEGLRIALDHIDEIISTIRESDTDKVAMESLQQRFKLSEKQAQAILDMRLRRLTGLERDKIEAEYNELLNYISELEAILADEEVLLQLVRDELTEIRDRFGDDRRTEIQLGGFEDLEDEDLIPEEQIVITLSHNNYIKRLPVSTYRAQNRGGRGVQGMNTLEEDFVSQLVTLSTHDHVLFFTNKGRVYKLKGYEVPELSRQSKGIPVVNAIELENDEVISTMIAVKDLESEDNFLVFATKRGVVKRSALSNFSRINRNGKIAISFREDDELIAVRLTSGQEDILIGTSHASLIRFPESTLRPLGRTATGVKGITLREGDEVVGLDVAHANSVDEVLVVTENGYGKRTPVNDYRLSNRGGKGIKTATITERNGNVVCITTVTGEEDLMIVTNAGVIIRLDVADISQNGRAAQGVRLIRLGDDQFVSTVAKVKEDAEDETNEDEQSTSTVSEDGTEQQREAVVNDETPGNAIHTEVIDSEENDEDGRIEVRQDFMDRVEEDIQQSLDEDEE

On to `COc1ccc(C(=O)NNC(=O)c2cc(-c3ccc(Br)cc3)n[nH]2)cc1` [3e, 3-(4-Bromophenyl)-N'-(4-methoxybenzoyl)-1H-pyrazole-5-carbohydrazide], for which the melting point (as a rule, the temperature of the solid-liquid transition) fell in the range of 281 to 282 °C. Half-maximal inhibition in series [1] (IC50) required 8.19 µM. The IC50 (as a rule, the concentration needed to halve the response being measured) in series [2] is 29.5 µM. In series [3], the MIC turned out to be 50 µg/mL (≈ 120 µM). Moreover, the MIC in series [4] amounted to 6.68 µg/mL (≈ 16.1 µM). Besides, the MIC in series [5] amounted to 12.5 µg/mL (≈ 30.1 µM). Further, the MIC in series [6] is 10.1 µg/mL (≈ 24.4 µM).

Molecule `Cc1ccccc1C(=O)NNC(=O)c1cc(-c2ccc(Br)cc2)n[nH]1` [3p, 3-(4-Bromophenyl)-N'-(2-methylbenzoyl)-1H-pyrazole-5-carbohydrazide] showed a melting point of 292 to 294 °C. This molecule had an IC50 in series [1] of 13 µM. For the same molecule, the IC50 in series [2] was 1.25 µM. For the same molecule, the MIC in series [3] was 50 µg/mL (≈ 125 µM). Moreover, in series [4], the MIC turned out to be 8.08 µg/mL (≈ 20.2 µM). For the same molecule, the MIC in series [5] was 12.5 µg/mL (≈ 31.3 µM). The MIC in series [6] turned out to be 12.2 µg/mL (≈ 30.4 µM).

Molecule `O=C(NNC(=O)c1cc(-c2ccc(Br)cc2)n[nH]1)c1ccccc1` [3s, N'-Benzoyl-3-(4-bromophenyl)-1H-pyrazole-5-carbohydrazide] had a melting point of 288 to 290 °C. In series [1], this molecule showed an IC50 of 8.44 µM. The molecule also showed a 50% inhibitory concentration (IC50) in series [2] of 2.6 µM. In addition, in series [3], the MIC stood at 12.5 µg/mL (≈ 32.4 µM). Further, the MIC in series [4] was 10.6 µg/mL (≈ 27.4 µM). In addition, in series [5], the MIC came out at 12.5 µg/mL (≈ 32.4 µM). Also, the MIC in series [6] stood at 10.6 µg/mL (≈ 27.4 µM).
